From patent US8148100B2, “Mina53 assays” (ISIS Innovation Limited, priority 2005, dated 2012)

Key:
[1] = target: T1, Mina53(A26-V465) (Homo sapiens, UniProt Q8IUF8, A386T); assay: [14C] labelled 2-OG decarboxylation assay (uncoupled 2-OG turnover, 14CO2 release); type: biochemical; settings: for inhibition of uncoupled 2-OG turnover by small molecules (in words): final concentration of 1 mM; for 2OG turnover: truncated Mina53 A26-V465 with Fe(II) and ascorbate, 16 nm 2-OG initially present, 37° C., 20 minutes
T1 construct: A N-terminal truncation of Mina53 A26-V465 cloned into pNIC28-Bsa4 was supplied by the Structural Genomics Consortium Oxford; His-tag (polyhistidine, TEV-cleavable, from pNIC28-Bsa4) (N, cleaved yes); made in house; host or cells: E. coli BL21(DE3)
Method: Once purified full-length His-Mina53 had been obtained it was tested for 2-OG oxygenase activity. A standard assay for this family of enzymes involves the use of [^14C] labelled 2-OG co-substrate. Upon reaction, the ^14C label is released as 14CO2 gas (old FIG. 2).
The ^14CO2 gas is then trapped using a strong base and quantified by liquid scintillation. The level of uncoupled turnover of 2-OG oxygenases can be increased by the use of a reducing agent, e.g. ascorbate. Many other assays for 2-OG oxygenases are well known, e.g. those based on oxygen consumption, succinate production or oxidation of the “prime substrate” (McNeill et al (2005) Anal. Biochem. 336, 125-31; Sabourin & Bieber (1982) J. Biol. Chem. 257, 7460-7; and Cunliffe et al. (1986) Biochem. J. 240, 617-9).
As noted above, many of the enzymes in the family catalyse the decarboxylation of 2-OG in the absence of a suitable prime substrate, albeit at a reduced rate. This activity is sometimes termed as uncoupled turnover. The protocol used for the 2-OG assay decarboxylation is based on the method used to measure [^14CO2] release by α-ketoisocaproate oxygenase (Sabourin & Bieber (1982) J. Biol. Chem. 257, 7460-7). Standard assay conditions consisted of a total volume of 100 μl, 50 mM Tris-HCl pH 7.5, 4 mM ascorbate, 160 μM 2OG (5% 1-[^14C]), 80 μM FeSO4.6H2O, 0.48 mg·ml^−1 catalase, 10 μM Mina53. Four stocks were made: (a) Mina53 (b) Fe(II) (c) ascorbate and, (d) all other reagents. Assays were started by mixing components (a) to (d). A tube containing 200 μl hyamine hydroxide was added and the vial sealed. The assays were incubated at 37° C. for 20 minutes then quenched with methanol (200 μl). Reaction tubes were then left on ice for 30 mins to collect [^14CO2] gas, before the hyamine hydroxide was removed and treated with scintillant solution for counting (Beckman, LS6500). Assays were performed in triplicate unless otherwise stated. When potential small molecule inhibitors were added, they were mixed to stock (d) to a final concentration of 1 mM in Tris 50 mM, pH 7.9 buffer. To investigate inhibition of Mina53 by metals other than Fe(II), NiCl2 and ZnCl2 were added separately to the assay mixture to a final concentration of 80 μM.
Using this [^14C] labelled 2-OG assay (16 nm of 2-OG was initially present in the assay mixture), the level of uncoupled turnover for Mina53 was measured under standard catalytic conditions (16 nm of 2-OG was initially present in the assay mixture), in the absence of Fe(II), in the absence of ascorbate and in the presence on N-oxalylglycine (NOG) a ubiquitous inhibitor for the 2-OG dependent non-haem Fe(II) oxygenases^16.

[2] = target: T1, Mina53(A26-V465); assay: as above; type: biochemical; settings: His-Mina53, absence of prime substrate
[3] = final assay concentration of 80 μM

T1 sequence (Q8IUF8 26-465 A386T): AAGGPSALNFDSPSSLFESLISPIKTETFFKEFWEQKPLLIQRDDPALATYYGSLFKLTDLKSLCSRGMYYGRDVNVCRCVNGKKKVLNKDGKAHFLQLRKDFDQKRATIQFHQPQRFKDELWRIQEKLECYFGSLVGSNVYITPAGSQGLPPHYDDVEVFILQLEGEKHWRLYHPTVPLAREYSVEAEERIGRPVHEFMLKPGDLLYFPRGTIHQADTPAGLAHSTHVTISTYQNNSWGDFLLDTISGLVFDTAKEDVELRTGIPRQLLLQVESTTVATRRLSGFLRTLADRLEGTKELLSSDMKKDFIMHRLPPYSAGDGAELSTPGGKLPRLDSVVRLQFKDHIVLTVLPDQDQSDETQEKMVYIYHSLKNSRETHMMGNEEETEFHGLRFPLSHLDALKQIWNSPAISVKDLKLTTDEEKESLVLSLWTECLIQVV

Compound	inhibition of uncoupled 2-OG turnover by small molecules (in words) [1]	2OG turnover ([1]; small molecule added at 1 mM)	decarboxylation of 2-OG by His-Mina53 in the presence of inhibitor (in words) [2]	relative inhibitory potency, Ni versus Zn (in words) [1, 3]	inhibition of Mina53 mediated oxidation of 2OG by metals other than Fe(II) (in words) [1, 3]	2OG turnover ([1]; metal salt added at 80 μM)
[Cl][Ni][Cl] [NiCl2]	–	–	–	–	inhibit 2OG turnover	2 ± 0.23 nm
[Cl-].[Cl-].[Zn+2] [ZnCl2]	–	–	–	more potent inhibitor	inhibit 2OG turnover	0.93 ± 0.17 nm
fumarate	inhibit uncoupled 2-OG turnover	0.58 ± 0.09 nm	–	–	–	–

Continued, in another order:

inhibition of uncoupled 2-OG turnover by small molecules (in words) [1]	2OG turnover ([1]; small molecule added at 1 mM)	decarboxylation of 2-OG by His-Mina53 in the presence of inhibitor (in words) [2]	relative inhibitory potency, Ni versus Zn (in words) [1, 3]	Compound	inhibition of Mina53 mediated oxidation of 2OG by metals other than Fe(II) (in words) [1, 3]	2OG turnover ([1]; metal salt added at 80 μM)
inhibit uncoupled 2-OG turnover	0.47 ± 0.12 nm	inhibited	–	O=C(O)CNC(=O)C(=O)O [NOG, N-oxalylglycine]	–	–
inhibit uncoupled 2-OG turnover	0.17 ± 0.12 nm	–	–	CCC(=O)C1C(=O)CC(C(=O)O)CC1=O (stereo not shown) [Prohexadione, prohexadione]	–	–
did not significantly reduce it	3.86 ± 0.05 nm	–	–	O=C(O)C(=O)NC(Cc1ccccc1)C(=O)O [NOFD, N-oxalyl D-phenylalaninie]	–	–
did not significantly reduce it	3.18 ± 0.03 nm	–	–	O=C(O)CNC(=O)c1nc(Cl)c2ccccc2c1O [BB231]	–	–
